ChEMBL document CHEMBL3351650, “Anti-tyrosinase, antioxidant, and antibacterial activities of novel 5-hydroxy-4-acetyl-2,3-dihydronaphtho[1,2-b]furans” (Eur J Med Chem, 2014)
In brackets after ≈: the same amount, converted by molar mass.

Key:
Staphylococcus aureus = test: Antibacterial activity against Staphylococcus aureus KCTC-1916 after 24 hrs by twofold dilution method; format: functional; settings: KCTC-1916, 24 h
Escherichia coli = test: microbe, parasite or virus in culture; settings: KCTC-1924, 24 h
Description: Antibacterial activity against Escherichia coli KCTC-1924 after 24 hrs by twofold dilution method

Tyrosinase [1] = target: T1, Tyrosinase (Agaricus bisporus, UniProt O42713)
T1 sequence (O42713 whole entry): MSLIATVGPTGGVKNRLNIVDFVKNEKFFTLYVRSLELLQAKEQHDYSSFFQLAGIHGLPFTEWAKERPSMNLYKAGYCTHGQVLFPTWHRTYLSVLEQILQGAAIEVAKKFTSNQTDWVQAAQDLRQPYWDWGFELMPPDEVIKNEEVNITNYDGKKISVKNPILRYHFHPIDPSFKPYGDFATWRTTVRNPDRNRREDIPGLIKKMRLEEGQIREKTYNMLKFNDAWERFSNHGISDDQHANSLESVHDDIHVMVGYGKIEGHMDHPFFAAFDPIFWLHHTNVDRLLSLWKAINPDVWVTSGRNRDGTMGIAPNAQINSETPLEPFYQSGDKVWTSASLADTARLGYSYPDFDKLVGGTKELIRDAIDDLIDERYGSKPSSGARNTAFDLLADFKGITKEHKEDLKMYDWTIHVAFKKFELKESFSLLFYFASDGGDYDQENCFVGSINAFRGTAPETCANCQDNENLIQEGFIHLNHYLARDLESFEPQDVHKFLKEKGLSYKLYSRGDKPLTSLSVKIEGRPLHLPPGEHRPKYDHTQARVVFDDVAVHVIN
Description: Inhibition of mushroom tyrosinase using L-DOPA as substrate after 2 mins by spectrophotometry

Tyrosinase [2] = target: T1, Tyrosinase; test: Competitive inhibition of mushroom tyrosinase using L-DOPA as substrate after 2 mins by Lineweaver-Burk plot

Compound	MIC (Staphylococcus aureus) [µg/mL]	MIC (Escherichia coli) [µg/mL]	IC50 (Tyrosinase [1]) [µM]	IC50 [µg/mL]	Ki (Tyrosinase [2]) [µM]
CCOC1Cc2c(C(C)=O)c(O)c3ccccc3c2O1 (stereo unspecified)	0.5 (≈ 1.84 µM)	16 (≈ 58.8 µM)	305	25.11 (≈ 92.2 µM)	
COC1(C)Cc2c(C(C)=O)c(O)c3ccccc3c2O1 (stereo unspecified)	0.5 (≈ 1.84 µM)	16 (≈ 58.8 µM)	> 367	31.47 (≈ 116 µM)	
CC(=O)c1c2c(c3ccccc3c1O)OC(C)(c1ccccc1)C2 (stereo unspecified)	32 (≈ 101 µM)	2 (≈ 6.28 µM)	> 314	77.62 (≈ 244 µM)	
COc1ccc(C2Cc3c(C(C)=O)c(O)c4ccccc4c3O2)cc1 (stereo unspecified)	32 (≈ 95.7 µM)		> 299	> 100	
CCO[C@@H]1Oc2c(c(C(C)=O)c(O)c3ccccc23)[C@@H]1C (relative stereo)	0.5 (≈ 1.75 µM)	32 (≈ 112 µM)	> 349	62.51 (≈ 218 µM)	
CC(=O)c1c2c(c3ccccc3c1O)O[C@H]1OCC[C@@H]21 (relative stereo)	8 (≈ 29.6 µM)	2 (≈ 7.4 µM)	> 370	> 100	

These reach a lower IC50 (Tyrosinase [1]). Values come first.

MIC (Staphylococcus aureus) [µg/mL]	MIC (Escherichia coli) [µg/mL]	IC50 (Tyrosinase [1]) [µM]	IC50 [µg/mL]	Ki (Tyrosinase [2]) [µM]	Compound
0.5 (≈ 1.75 µM)	0.5 (≈ 1.75 µM)	31.1	3.33 (≈ 11.6 µM)	11.2	CCCOC1Cc2c(C(C)=O)c(O)c3ccccc3c2O1 (stereo unspecified)
32 (≈ 107 µM)		198	6.3 (≈ 21 µM)		CC(=O)c1c2c(c3ccccc3c1O)OC(OCC(C)C)C2 (stereo unspecified)
8 (≈ 26.6 µM)	0.5 (≈ 1.66 µM)	232	5.01 (≈ 16.7 µM)		CCCCOC1Cc2c(C(C)=O)c(O)c3ccccc3c2O1 (stereo unspecified)
		107	> 100		CCO[C@H]1Oc2c(c(C(C)=O)c(O)c3ccccc23)[C@@H]1C (relative stereo)
0.5 (≈ 1.76 µM)	32 (≈ 113 µM)	176	> 100		CC(=O)c1c2c(c3ccccc3c1O)O[C@H]1OCCC[C@@H]21 (relative stereo)
